23 compounds from patent publication US7041698B2, “Hepatitis C virus inhibitors” (Bristol-Myers Squibb Company, priority 2002, dated 2006) can be followed below.

pEC50, pIC50: −log10 of the molar value.

The test system of experiment [1] is HCV replicon in Huh7 cells. Description: HCV replicon cell-based assay. Also noted: species or system HCV strain 1B. The following applies: Hepatitis C virus, Huh-7, 96 h, HCV replicon, 4 days, read-out: EC50 range. In short, it runs like this:
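Huh7 cells carrying a genotype 1b subgenomic replicon (NS3-NS5B, neo) treated 4 days at 37° C with compound (0.5% DMSO final). NS3 protease activity read in lysates with 10 μM FRET peptide (340/490 nm, kinetic), giving EC50. Confirmed by Taqman qRT-PCR of HCV RNA and a Renilla luciferase replicon.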

The target of experiment [2] is T1, HCV NS3/4A protease complex (UniProt P27958, C1454S/C1711G, species not given).
T1 construct: fused on or other part: Three-lysine solubilising tail at the C-terminus of NS4A
The experiment can be described thus: Recombinant HCV NS3/4A protease complex FRET peptide assay (strain not stated). Type of experiment: biochemical. The following applies: HCV NS3/4A protease enzyme assay, read-out: IC50 range.

Consider `C=CC1C[C@]1(NC(=O)[C@@H]1C[C@@H](OC(=O)Nc2c(Cl)cccc2Cl)CN1C(=O)[C@@H](NC(=O)OC(C)(C)C)C(C)(C)C)C(=O)NS(=O)(=O)C1CC1` (stereo partly drawn) [Compound 54, BocNH-P3(t-BuGly)-P2(Hyp(O—CO(NH—(2,6-dichloro-phenyl))))-P1(1R,2S VinylAcca)—CONHSO2Cyclopropane], for which the negative logarithm of the EC50 (pEC50) in experiment [1] was 5.00 to 6.00. For the same compound, the pIC50 in experiment [2] was 6.00 to 7.00.

As to `C=CC1C[C@]1(NC(=O)[C@@H]1C[C@@H](OC(=O)Nc2ccccc2OC)CN1C(=O)[C@@H](NC(=O)OC(C)(C)C)C(C)(C)C)C(=O)NS(=O)(=O)C1CC1` (stereo partly drawn) [Compound 55, BocNH-P3(t-BuGly)-P2(Hyp(O—CO(NH—(2-methoxy-phenyl))))-P1(1R,2S VinylAcca)—CONHSO2Cyclopropane], in experiment [1], the pEC50 is 6.00 to 7.00. Moreover, the pIC50 in experiment [2] is more than 7.00.

Regarding `C=CC1C[C@]1(NC(=O)[C@@H]1C[C@@H](OC(=O)Nc2ccccc2OCC)CN1C(=O)[C@@H](NC(=O)OC(C)(C)C)C(C)(C)C)C(=O)NS(=O)(=O)C1CC1` (stereo partly drawn) [Compound 56, BocNH-P3(t-BuGly)-P2(Hyp(O—CO(NH—(2-ethoxy-phenyl))))-P1(1R,2S VinylAcca)—CONHSO2Cyclopropane], the negative-log EC50 (pEC50) in experiment [1] was 6.00 to 7.00. Moreover, the pIC50 in experiment [2] was more than 7.00.

On to `C=CC1C[C@]1(NC(=O)[C@@H]1C[C@@H](OC(=O)Nc2ccccc2C)CN1C(=O)[C@@H](NC(=O)OC(C)(C)C)C(C)(C)C)C(=O)NS(=O)(=O)C1CC1` (stereo partly shown) [Compound 57], for which the pEC50 in experiment [1] was 5.00 to 6.00. In experiment [2], the negative logarithm of the IC50 (pIC50) is 6.00 to 7.00.

As for `C=CC1C[C@]1(NC(=O)[C@@H]1C[C@@H](OC(=O)Nc2ccccc2CC)CN1C(=O)[C@@H](NC(=O)OC(C)(C)C)C(C)(C)C)C(=O)NS(=O)(=O)C1CC1` (stereo partly drawn) [Compound 59, BocNH-P3(t-BuGly)-P2(Hyp(O—CO(NH—(2-ethyl-phenyl))))-P1(1R,2S VinylAcca)—CONHSO2Cyclopropane], in experiment [1], the pEC50 is 5.00 to 6.00. The negative logarithm of the IC50 (pIC50) in experiment [2] is 6.00 to 7.00.

As to `C=CC1C[C@]1(NC(=O)[C@@H]1C[C@@H](OC(=O)Nc2ccccc2[N+](=O)[O-])CN1C(=O)[C@@H](NC(=O)OC(C)(C)C)C(C)(C)C)C(=O)NS(=O)(=O)C1CC1` (stereo partly drawn) [Compound 60, BocNH-P3(t-BuGly)-P2(Hyp(O—CO(NH—(2-nitro-phenyl))))-P1(1R,2S VinylAcca)—CONHSO2Cyclopropane], in experiment [1], the pEC50 is 6.00 to 7.00. Besides, the pIC50 in experiment [2] is more than 7.00.

Turning to `C=CC1C[C@]1(NC(=O)[C@@H]1C[C@@H](OC(=O)Nc2c(C)cccc2Cl)CN1C(=O)[C@@H](NC(=O)OC(C)(C)C)C(C)(C)C)C(=O)NS(=O)(=O)C1CC1` (stereo partly drawn) [Compound 63, BocNH-P3(t-BuGly)-P2(Hyp(O—CO(NH—(2-chloro-6-methyl))))-P1(1R,2S VinylAcca)—CONHSO2Cyclopropane], the pEC50 in experiment [1] was 5.00 to 6.00. The pIC50 in experiment [2] was 6.00 to 7.00.

As to `C=CC1C[C@]1(NC(=O)[C@@H]1C[C@@H](OC(=O)Nc2ccccc2C(=O)OCCCC)CN1C(=O)[C@@H](NC(=O)OC(C)(C)C)C(C)(C)C)C(=O)NS(=O)(=O)C1CC1` (stereo partly drawn) [Compound 64, BocNH-P3(t-BuGly)-P2(Hyp(O—CO(NH—(2-benzoic acid butyl ester))))-P1(1R,2S VinylAcca)—CONHSO2Cyclopropane], the negative-log EC50 (pEC50) in experiment [1] was 6.00 to 7.00. Further, the pIC50 in experiment [2] was more than 7.00.

Turning to `C=CC1C[C@]1(NC(=O)[C@@H]1C[C@@H](OC(=O)Nc2ccccc2I)CN1C(=O)[C@@H](NC(=O)OC(C)(C)C)C(C)(C)C)C(=O)NS(=O)(=O)C1CC1` (stereo partly drawn) [Compound 65, BocNH-P3(t-BuGly)-P2(Hyp(O—CO(NH—(2-iodo-phenyl))))-P1(1R,2S VinylAcca)—CONHSO2Cyclopropane], in experiment [1], the pEC50 is 6.00 to 7.00. For the same compound, in experiment [2], the pIC50 was more than 7.00.

On to `C=CC1C[C@]1(NC(=O)[C@@H]1C[C@@H](OC(=O)Nc2ccccc2CCC)CN1C(=O)[C@@H](NC(=O)OC(C)(C)C)C(C)(C)C)C(=O)NS(=O)(=O)C1CC1` (stereo partly drawn) [Compound 66, BocNH-P3(t-BuGly)-P2(Hyp(O—CO(NH—(2-propyl-phenyl))))-P1(1R,2S VinylAcca)—CONHSO2Cyclopropane], for which the pEC50 in experiment [1] is 5.00 to 6.00. In addition, the negative-log IC50 (pIC50) in experiment [2] was more than 7.00.

Regarding `C=CC1C[C@]1(NC(=O)[C@@H]1C[C@@H](OC(=O)Nc2ccccc2Oc2ccccc2)CN1C(=O)[C@@H](NC(=O)OC(C)(C)C)C(C)(C)C)C(=O)NS(=O)(=O)C1CC1` (stereo partly drawn) [Compound 67, BocNH-P3(t-BuGly)-P2(Hyp(O—CO(NH—(2-phenoxy-phenyl))))-P1(1R,2S VinylAcca)—CONHSO2Cyclopropane], the pEC50 in experiment [1] is 6.00 to 7.00. The pIC50 in experiment [2] was more than 7.00.

Consider `C=CC1C[C@]1(NC(=O)[C@@H]1C[C@@H](OC(=O)Nc2ccccc2C(=O)O)CN1C(=O)[C@@H](NC(=O)OC(C)(C)C)C(C)(C)C)C(=O)NS(=O)(=O)C1CC1` (stereo partly drawn) [Compound 69, BocNH-P3(t-BuGly)-P2(Hyp(O—CO(NH—(2-benzoic acid))))-P1(1R,2S VinylAcca)—CONHSO2Cyclopropane], for which the pEC50 in experiment [1] was less than 5.00. Further, the negative-log IC50 (pIC50) in experiment [2] was 6.00 to 7.00.

For `C=CC1C[C@]1(NC(=O)[C@@H]1C[C@@H](OC(=O)Nc2onc(C)c2C)CN1C(=O)[C@@H](NC(=O)OC(C)(C)C)C(C)(C)C)C(=O)NS(=O)(=O)C1CC1` (stereo partly drawn) [Compound 70, BocNH-P3(t-BuGly)-P2(Hyp(O—CO(NH—(3,4-Dimethyl-isoxazol-5-yl))))-P1(1R,2S VinylAcca)—CONHSO2Cyclopropane], in experiment [1], the negative logarithm of the EC50 (pEC50) was less than 5.00. For the same compound, in experiment [2], the pIC50 was 6.00 to 7.00.

In the case of `C=CC1C[C@]1(NC(=O)[C@@H]1C[C@@H](OC(=O)Nc2cscc2C(=O)OC)CN1C(=O)[C@@H](NC(=O)OC(C)(C)C)C(C)(C)C)C(=O)NS(=O)(=O)C1CC1` (stereo partly drawn) [Compound 71, BocNH-P3(t-BuGly)-P2(Hyp(O—CO(NH-4-(thiophene-3-carboxylic acid methyl ester))))-P1(1R,2S VinylAcca)—CONHSO2Cyclopropane], the pEC50 in experiment [1] was 6.00 to 7.00. For the same compound, the negative-log IC50 (pIC50) in experiment [2] is more than 7.00.

Turning to `C=CC1C[C@]1(NC(=O)[C@@H]1C[C@@H](OC(=O)Nc2ncccc2C(=O)OCC)CN1C(=O)[C@@H](NC(=O)OC(C)(C)C)C(C)(C)C)C(=O)NS(=O)(=O)C1CC1` (stereo partly drawn) [Compound 72, BocNH-P3(t-BuGly)-P2(Hyp(O—CO(NH-2-(nicotinic acid ethyl ester))))-P1(1R,2S VinylAcca)—CONHSO2Cyclopropane], the pEC50 in experiment [1] is 5.00 to 6.00. In addition, the pIC50 in experiment [2] is more than 7.00.

On to `C=CC1C[C@]1(NC(=O)[C@@H]1C[C@@H](OC(=O)Nc2cc(C)nn2-c2ccccc2)CN1C(=O)[C@@H](NC(=O)OC(C)(C)C)C(C)(C)C)C(=O)NS(=O)(=O)C1CC1` (stereo partly drawn) [Compound 73, BocNH-P3(t-BuGly)-P2(Hyp(O—CO(NH—(5-Methyl-2-phenyl-4H-pyrazol-3-yl))))-P1(1R,2S VinylAcca)—CONHSO2 Cyclopropane], for which the pEC50 in experiment [1] was less than 5.00. In experiment [2], the negative logarithm of the IC50 (pIC50) was more than 7.00.

`C=CC1C[C@]1(NC(=O)[C@@H]1C[C@@H](OC(=O)Nc2ccccc2C(=O)c2ccccc2)CN1C(=O)[C@@H](NC(=O)OC(C)(C)C)C(C)(C)C)C(=O)NS(=O)(=O)C1CC1` (stereo partly drawn) [Compound 74, BocNH-P3(t-BuGly)-P2(Hyp(O—CO(NH—(2-benzophenone))))-P1(1R,2S VinylAcca)—CONHSO2Cyclopropane]: the pEC50 in experiment [1] is 6.00 to 7.00. Moreover, in experiment [2], the pIC50 is more than 7.00.

`C=CC1C[C@]1(NC(=O)[C@@H]1C[C@@H](OC(=O)Nc2ccccn2)CN1C(=O)[C@@H](NC(=O)OC(C)(C)C)C(C)(C)C)C(=O)NS(=O)(=O)C1CC1` (stereo partly drawn) [Compound 75, BocNH-P3(t-BuGly)-P2(Hyp(O—CO(NH—(pyridin-2-yl))))-P1(1R,2S VinylAcca)—CONHSO2Cyclopropane]: the negative-log EC50 (pEC50) in experiment [1] was less than 5.00. Also, the pIC50 in experiment [2] is 6.00 to 7.00.

In the case of `C=CC1C[C@]1(NC(=O)[C@@H]1C[C@@H](OC(=O)Nc2cc(C(C)=O)ccc2N2CCC(C(=O)OCC)CC2)CN1C(=O)[C@@H](NC(=O)OC(C)(C)C)C(C)(C)C)C(=O)NS(=O)(=O)C1CC1` (stereo partly drawn) [Compound 76, BocNH-P3(t-BuGly)-P2(Hyp(O—CO(NH-2-(1-(4-acetyl-phenyl))-piperidine-4-carboxylic acid ethyl ester)))-P1(1R,2S VinylAcca)—CONHSO2Cyclopropane], the pEC50 in experiment [1] is 6.00 to 7.00. The pIC50 in experiment [2] was more than 7.00.

On to `C=CC1C[C@]1(NC(=O)[C@@H]1C[C@@H](OC(=O)Nc2ccc(Cl)cc2-c2cc(C)n[nH]2)CN1C(=O)[C@@H](NC(=O)OC(C)(C)C)C(C)(C)C)C(=O)NS(=O)(=O)C1CC1` (stereo partly drawn) [Compound 78, BocNH-P3(t-BuGly)-P2(Hyp(O—CO(NH-1-(4-Chloro-2-(5-methyl-2H-pyrazol-3-yl)phenyl))))-P1(1R,2S VinylAcca)—CONHSO2Cyclopropane], for which the pEC50 in experiment [1] is less than 5.00. Besides, in experiment [2], the negative-log IC50 (pIC50) is 6.00 to 7.00.

Turning to `C=CC1C[C@]1(NC(=O)[C@@H]1C[C@@H](OC(=O)Nc2ccccc2C(C)=O)CN1C(=O)[C@@H](NC(=O)OC(C)(C)C)C(C)(C)C)C(=O)NS(=O)(=O)C1CC1` (stereo partly drawn) [Compound 79, BocNH-P3(t-BuGly)-P2(Hyp(O—CO(NH—(2-acetophenone))))-P1(1R,2S VinylAcca)—CONHSO2Cyclopropane], in experiment [1], the pEC50 was 6.00 to 7.00. The negative logarithm of the IC50 (pIC50) in experiment [2] was more than 7.00.

For the compound `C=CC1C[C@]1(NC(=O)[C@@H]1C[C@@H](OC(=O)Nc2cc(C(C)=O)ccc2N2CCCCC2)CN1C(=O)[C@@H](NC(=O)OC(C)(C)C)C(C)(C)C)C(=O)NS(=O)(=O)C1CC1` (stereo partly drawn) [Compound 80, BocNH-P3(t-BuGly)-P2(Hyp(O—CO(NH-1-(2-piperidino-5-acetylphenyl))))-P1(1R,2S VinylAcca)—CONHSO2Cyclopropane], in experiment [1], the negative-log EC50 (pEC50) is more than 7.00. In addition, the negative logarithm of the IC50 (pIC50) in experiment [2] is more than 7.00.

On to `C=CC1C[C@]1(NC(=O)[C@@H]1C[C@@H](OC(=O)Nc2ccccc2-c2ccc(C)o2)CN1C(=O)[C@@H](NC(=O)OC(C)(C)C)C(C)(C)C)C(=O)NS(=O)(=O)C1CC1` (stereo partly shown) [Compound 81], for which the pEC50 in experiment [1] is more than 7.00. The pIC50 in experiment [2] is more than 7.00.
